Target: T1, BRD4 (Homo sapiens, UniProt O60885)
T1 construct: HEK293 containing a HiBit insertion for BRD4; endogenous in cells; host or cells: HEK293 with a HiBiT insertion for BRD4
Experiment: Assay 1 - Degradation of HiBit-BRD4 in HEK293
Format: cell-based
Conditions: HiBit-BRD4 in HEK293, 6 h treatment
Experimental: 1.1 Assay 1-Degradation of HiBit-BRD4 in HEK293
HEK293 containing a HiBit insertion for BRD4 were plated in 384-well tissue culture plates at a density of 8×10^4 per well in a volume of 36 μL and incubated overnight at 37° C. and 5% CO2. Wells were treated with test compounds for 6 h prior to addition of the NanoLuc substrate and reading on a […]. Degradation data was plotted and analysed using […] (Graphpad).

SMILES | DC50 [nM] | Dmax [%]
CC(=O)N1c2ccc(-c3ccc(C(=O)NCCOCCOCCOCCOCCOCCNC(=O)[C@@H]4CN(C(=O)/C(C#N)=C/c5ccc(F)cc5)C[C@H]4C(C)C)cc3)cc2[C@H](Nc2ccc(Cl)cc2)C[C@@H]1C [Example 15i] | > 200 | 50 to 70
CC(=O)N1c2ccc(-c3ccc(C(=O)NCCOCCOCCOCCOCCOCCNC(=O)C4CC(C(C)C)CN(C(=O)/C(C#N)=C/C(C)(C)C)C4)cc3)cc2[C@H](Nc2ccc(Cl)cc2)C[C@@H]1C (stereo partly shown) [Example 13l] | > 200 | 30 to 50
CC(=O)N1c2ccc(-c3ccc(C(=O)NCCOCCOCCOCCOCCOCCNC(=O)[C@@H]4CN(C(=O)/C(C#N)=C/c5ccn(C)n5)C[C@H]4c4cccc(C)c4)cc3)cc2[C@H](Nc2ccc(Cl)cc2)C[C@@H]1C [Example 15al] | > 200 | ≥ 70
COc1ccc(C2CC(C(=O)NCCOCCOCCOCCOCCOCCNC(=O)c3ccc(-c4ccc5c(c4)[C@H](Nc4ccc(Cl)cc4)C[C@H](C)N5C(C)=O)cc3)CN(C(=O)/C(C#N)=C/C(C)(C)CN3CCOCC3)C2)cc1 (stereo partly shown) [Example 13ai] | > 200 | 30 to 50
CC(=O)N1c2ccc(-c3ccc(C(=O)NCCOCCOCCOCCOCCOCCNC(=O)C4CCCN(C(=O)/C(C#N)=C/C(C)(C)CN5CCOCC5)C4)cc3)cc2[C@H](Nc2ccc(Cl)cc2)C[C@@H]1C (stereo partly shown) [Example 13e] | > 200 | 30 to 50
CC(=O)N1c2ccc(-c3ccc(C(=O)NCCOCCOCCOCCOCCOCCNC(=O)[C@@H]4CN(C(=O)/C(C#N)=C/c5ccc(F)cc5)C[C@H]4c4ccccc4)cc3)cc2[C@H](Nc2ccc(Cl)cc2)C[C@@H]1C [Example 15x] | > 200 | 30 to 50
CC(=O)N1c2ccc(-c3ccc(C(=O)NCCOCCOCCOCCOCCOCCNC(=O)C4CC(C(C)C)CN(C(=O)/C(C#N)=C/c5ccc(F)cc5)C4)cc3)cc2[C@H](Nc2ccc(Cl)cc2)C[C@@H]1C (stereo partly shown) [Example 13n] | > 200 | 50 to 70
CC(=O)N1c2ccc(-c3ccc(C(=O)NCCOCCOCCOCCOCCOCCNC(=O)C4CC(C)CN(C(=O)/C(C#N)=C/C(C)(C)C)C4)cc3)cc2[C@H](Nc2ccc(Cl)cc2)C[C@@H]1C (stereo partly shown) [Example 13g] | > 200 | 50 to 70
COc1ccc([C@@H]2CN(C(=O)/C(C#N)=C/c3ccn(C)n3)C[C@H]2C(=O)NCCOCCOCCOCCOCCOCCNC(=O)c2ccc(-c3ccc4c(c3)[C@H](Nc3ccc(Cl)cc3)C[C@H](C)N4C(C)=O)cc2)cc1 [Example 15ab] | 25 to 200 | 50 to 70
CC(=O)N1c2ccc(-c3ccc(C(=O)NCCOCCOCCOCCOCCOCCNC(=O)C4CC(C5CC5)CN(C(=O)/C(C#N)=C/C(C)(C)C)C4)cc3)cc2[C@H](Nc2ccc(Cl)cc2)C[C@@H]1C (stereo partly shown) [Example 13v] | 25 to 200 | ≥ 70
CC(=O)N1c2ccc(-c3ccc(C(=O)NCCOCCOCCOCCOCCOCCNC(=O)C4CC(c5ccccc5)CN(C(=O)/C(C#N)=C/C(C)(C)C)C4)cc3)cc2[C@H](Nc2ccc(Cl)cc2)C[C@@H]1C (stereo partly shown) [Example 13aa] | > 200 | ≥ 70
CC(=O)N1c2ccc(-c3ccc(C(=O)NCCOCCOCCOCCOCCOCCNC(=O)[C@@H]4CN(C(=O)/C(C#N)=C/C(C)(C)C)C[C@H]4c4cccc(C)c4)cc3)cc2[C@H](Nc2ccc(Cl)cc2)C[C@@H]1C [Example 15ak, N-(1-(4-((2S,4R)-1-acetyl-4-((4-chlorophenyl)amino)-2-methyl-1,2,3,4-tetrahydroquinolin-6-yl)phenyl)-1-oxo-5,8,11,14,17-pentaoxa-2-azanonadecan-19-yl)-1-((E)-2-cyano-4,4-dimethylpent-2-enoyl)-4-(m-tolyl)pyrrolidine-3-carboxamide] | 25 to 200 | ≥ 70
CC(=O)N1c2ccc(-c3ccc(C(=O)NCCOCCOCCOCCOCCOCCNC(=O)[C@@H]4CN(C(=O)/C(C#N)=C/c5ccc(F)cc5)C[C@H]4c4ccc(F)cc4)cc3)cc2[C@H](Nc2ccc(Cl)cc2)C[C@@H]1C [Example 15ah] | > 200 | 30 to 50

More lines, now with the values ahead:

DC50 [nM] | Dmax [%] | SMILES
25 to 200 | ≥ 70 | CC(=O)N1c2ccc(-c3ccc(C(=O)NCCOCCOCCOCCOCCOCCNC(=O)C4CC(C5CC5)CN(C(=O)/C(C#N)=C/c5ccc(F)cc5)C4)cc3)cc2[C@H](Nc2ccc(Cl)cc2)C[C@@H]1C (stereo partly shown) [Example 13x]
< 25 | ≥ 70 | CC(=O)N1c2ccc(-c3ccc(C(=O)NCCOCCOCCOCCOCCOCCNC(=O)C4CC(C5CC5)CN(C(=O)/C(C#N)=C/c5nccs5)C4)cc3)cc2[C@H](Nc2ccc(Cl)cc2)C[C@@H]1C (stereo partly shown) [Example 13u]
25 to 200 | ≥ 70 | COc1ccc(C2CC(C(=O)NCCOCCOCCOCCOCCOCCNC(=O)c3ccc(-c4ccc5c(c4)[C@H](Nc4ccc(Cl)cc4)C[C@H](C)N5C(C)=O)cc3)CN(C(=O)/C(C#N)=C/c3nccs3)C2)cc1 (stereo partly shown) [Example 13ae]
25 to 200 | 30 to 50 | CC(=O)N1c2ccc(-c3ccc(C(=O)NCCOCCOCCOCCOCCOCCNC(=O)[C@@H]4CN(C(=O)/C(C#N)=C/C(C)(C)CN5CCOCC5)C[C@H]4c4ccc(F)cc4)cc3)cc2[C@H](Nc2ccc(Cl)cc2)C[C@@H]1C [Example 15ai]
25 to 200 | 30 to 50 | CC(=O)N1c2ccc(-c3ccc(C(=O)NCCOCCOCCOCCOCCOCCNC(=O)[C@@H]4CN(C(=O)/C(C#N)=C/c5ccn(C)n5)C[C@H]4c4ccccc4)cc3)cc2[C@H](Nc2ccc(Cl)cc2)C[C@@H]1C [Example 15w]
25 to 200 | ≥ 70 | CC(=O)N1c2ccc(-c3ccc(C(=O)NCCOCCOCCOCCOCCOCCNC(=O)[C@@H]4CN(C(=O)/C(C#N)=C/C(C)(C)C)C[C@H]4C)cc3)cc2[C@H](Nc2ccc(Cl)cc2)C[C@@H]1C [Example 15b]
25 to 200 | ≥ 70 | CC(=O)N1c2ccc(-c3ccc(C(=O)NCCOCCOCCOCCOCCOCCNC(=O)C4CC(C5CCCCC5)CN(C(=O)/C(C#N)=C/c5ccc(F)cc5)C4)cc3)cc2[C@H](Nc2ccc(Cl)cc2)C[C@@H]1C (stereo partly shown) [Example 13s]
25 to 200 | ≥ 70 | CC(=O)N1c2ccc(-c3ccc(C(=O)NCCOCCOCCOCCOCCOCCNC(=O)C4CC(c5cccc(C)c5)CN(C(=O)/C(C#N)=C/c5nccs5)C4)cc3)cc2[C@H](Nc2ccc(Cl)cc2)C[C@@H]1C (stereo partly shown) [Example 13at]
25 to 200 | 50 to 70 | CC(=O)N1c2ccc(-c3ccc(C(=O)NCCOCCOCCOCCOCCOCCNC(=O)[C@@H]4CN(C(=O)/C(C#N)=C/c5nccs5)C[C@H]4c4cccc(C)c4)cc3)cc2[C@H](Nc2ccc(Cl)cc2)C[C@@H]1C [Example 15aj]
25 to 200 | 50 to 70 | CC(=O)N1c2ccc(-c3ccc(C(=O)NCCOCCOCCOCCOCCOCCNC(=O)C4CC(C(C)C)CN(C(=O)/C(C#N)=C/c5ccn(C)n5)C4)cc3)cc2[C@H](Nc2ccc(Cl)cc2)C[C@@H]1C (stereo partly shown) [Example 13m]
25 to 200 | 50 to 70 | COc1ccc(C2CC(C(=O)NCCOCCOCCOCCOCCOCCNC(=O)c3ccc(-c4ccc5c(c4)[C@H](Nc4ccc(Cl)cc4)C[C@H](C)N5C(C)=O)cc3)CN(C(=O)/C(C#N)=C/C(C)(C)C)C2)cc1 (stereo partly shown) [Example 13af]
25 to 200 | 50 to 70 | CC(=O)N1c2ccc(-c3ccc(C(=O)NCCOCCOCCOCCOCCOCCNC(=O)[C@@H]4CN(C(=O)/C(C#N)=C/c5nccs5)C[C@H]4c4ccccc4)cc3)cc2[C@H](Nc2ccc(Cl)cc2)C[C@@H]1C [Example 15u]
25 to 200 | ≥ 70 | CC(=O)N1c2ccc(-c3ccc(C(=O)NCCOCCOCCOCCOCCOCCNC(=O)[C@@H]4CN(C(=O)/C(C#N)=C/c5nccs5)C[C@H]4c4ccc(F)cc4)cc3)cc2[C@H](Nc2ccc(Cl)cc2)C[C@@H]1C [Example 15ae]
25 to 200 | 30 to 50 | CC(=O)N1c2ccc(-c3ccc(C(=O)NCCOCCOCCOCCOCCOCCNC(=O)C4CC(c5ccc(C(F)(F)F)cc5)CN(C(=O)/C(C#N)=C/C(C)(C)CN5CCOCC5)C4)cc3)cc2[C@H](Nc2ccc(Cl)cc2)C[C@@H]1C (stereo partly shown) [Example 13an]
25 to 200 | ≥ 70 | CC(=O)N1c2ccc(-c3ccc(C(=O)NCCOCCOCCOCCOCCOCCNC(=O)C4CC(C5CCCCC5)CN(C(=O)/C(C#N)=C/C(C)(C)CN5CCOCC5)C4)cc3)cc2[C@H](Nc2ccc(Cl)cc2)C[C@@H]1C (stereo partly shown) [Example 13t]
25 to 200 | 50 to 70 | CC(=O)N1c2ccc(-c3ccc(C(=O)NCCOCCOCCOCCOCCOCCNC(=O)[C@@H]4CN(C(=O)/C(C#N)=C/c5ccn(C)n5)C[C@H]4CC(C)C)cc3)cc2[C@H](Nc2ccc(Cl)cc2)C[C@@H]1C [Example 15m]

— patent US20260232812A1, “BIFUNCTIONAL MOLECULES FOR TARGETED PROTEIN DEGRADATION” (Amphista Therapeutics Limited, priority 2022, published 2026)
